Active and inactive are the calls of the source. The rule behind the calls is not given here.
Legend:
[1] = Effective permeability of the compound in PBS/EtOH buffer (9:1) at […] after 10 hrs by HPLC-UV based PAMPA-BBB assay; type: ADME; conditions: read-out: permeability
[2] = Inhibition of LPS-induced NO production in mouse BV-2 cells incubated for 24 hrs by Griess reagent based assay; type: functional, cell-based
BV-2 [3] = test: Cytotoxicity against LPS-stimulated mouse BV-2 cells assessed as reduction in cell viability at 20 uM measured after 24 hrs by MTT assay relative to control; type: cell-based; conditions: bv-2, 24 h
BV-2 [4] = test: Cytotoxicity against LPS-stimulated mouse BV-2 cells assessed as reduction in cell viability at 10 uM measured after 24 hrs by MTT assay relative to control; type: cell-based; conditions: bv-2, 24 h
[5] = Potency index, ratio of OABC EC50 to test compound EC50 for inhibition of LPS-induced NO production in mouse BV-2 cells incubated for 24 hrs by Griess reagent based assay; type: functional
BV-2 [6] = test: Inhibition of TNF-alpha production in mouse BV-2 cells at 10 uM measured after 24 hrs by ELISA; type: functional, cell-based
BV-2 [7] = test: Inhibition of PGE2 production in mouse BV-2 cells at 10 uM measured after 24 hrs by ELISA; type: functional, cell-based
BV-2 [8] = test: Inhibition of TNF-alpha production in LPS stimulated mouse BV-2 cells measured after 24 hrs by ELISA; type: functional, cell-based; conditions: dose 1-10 µM
BV-2 [9] = test: Inhibition of PGE2 production in LPS- stimulated mouse BV-2 cells measured after 24 hrs by ELISA; type: functional, cell-based; conditions: dose 1-10 µM
[10] = Inhibition of iNOS expression in mouse BV-2 cells at 10 uM measured after 24 hrs by western blot analysis relative to control; type: functional
BV-2 [11] = test: Inhibition of iNOS expression in LPS-stimulated mouse BV-2 cells measured after 24 hrs by western blot analysis; type: functional, cell-based; conditions: dose 1-10 µM
[12] = Inhibition of iNOS expression in LPS-stimulated mouse BV-2 cells at 10 uM measured after 24 hrs by western blot analysis relative to control; type: functional
BV-2 [13] = test: Inhibition of COX-1 expression in LPS-stimulated mouse BV-2 cells at 1 to 10 uM measured after 24 hrs by western blot analysis; type: functional, cell-based; conditions: dose 1-10 µM
BV-2 [14] = test: Inhibition of COX-2 expression in LPS-stimulated mouse BV-2 cells measured after 24 hrs by western blot analysis; type: functional, cell-based
BV-2 [15] = test: Inhibition of COX-1 expression in mouse BV-2 cells at 10 uM measured after 24 hrs by western blot analysis; type: functional, cell-based
BV-2 [16] = test: Inhibition of COX-2 expression in mouse BV-2 cells at 10 uM measured after 24 hrs by western blot analysis; type: functional, cell-based
[17] = Potency indes, ratio of OABC to test compound for Inhibition of iNOS expression in LPS-stimulated mouse BV-2 cells at 10 uM measured after 24 hrs by western blot analysis; type: functional
BV-2 [18] = test: Potency indes, ratio of OABC to test compound for inhibition of COX-2 expression in LPS-stimulated mouse BV-2 cells at 10 uM measured after 24 hrs by western blot analysis; type: functional
BV-2 [19] = test: Inhibition of NF-kappaB p65 translocation in LPS-stimulated mouse BV-2 cells assessed as distribution of NF-kappaB p65 in nucleus and cytoplasm at 3 uM pretreated for 1 hr followed by LPS stimulation measured after 24 hrs by DAPI staining based immunofluorescence assay; type: cell-based; conditions: time 25.0 hrs
BV-2 [20] = test: Inhibition of TLR4/NF-kappaB signalling pathway in LPS- stimulated mouse BV-2 cells assessed as reduction in IRAK1 expression measured after 24 hrs by western blot analysis; type: cell-based; conditions: dose 0.3-10 µM
BV-2 [21] = test: Inhibition of TLR4/NF-kappaB signalling pathway in LPS- stimulated mouse BV-2 cells assessed as reduction in MyD88 expression at 0.3 to 10 uM measured after 24 hrs by western blot analysis; type: cell-based; conditions: dose 0.3-10 µM
BV-2 [22] = test: Inhibition of TLR4/NF-kappaB signalling pathway in mouse BV-2 cells assessed as increase in CD14 cell surface expression at 10 uM pretreated for 1 hr and measured after 24 hrs by flow cytometry analysis (Rvb= 3.8%); type: cell-based; design: scale not given: the % may be the effect or the level left; conditions: time 25.0 hrs
BV-2 [23] = test: Inhibition of TLR4/NF-kappaB signalling pathway in LPS-stimulated mouse BV-2 cells assessed as decrease in CD14 cell surface expression at 10 uM pretreated for 1 hr followed by LPS stimulation and measured after 24 hrs by […] (reference value: 27.2%); type: cell-based; design: scale not given: the % may be the effect or the level left; conditions: time 25.0 hrs
[24] = molecular target: MAP kinase p38 (Mus musculus) (UniProt P47811+O08911+Q9WUI1+Q9Z1B7); test: Inhibition of p38 MAPK phosphorylation in LPS-stimulated mouse BV-2 cells measured after 2 hrs by western blot analysis; type: cell-based; conditions: dose 0.3-10 µM
BV-2 [25] = test: Inhibition of ERK phosphorylation in LPS-stimulated mouse BV-2 cells at 0.3 to 10 uM measured after 2 hrs by western blot analysis; type: cell-based; conditions: dose 0.3-10 µM
BV-2 [26] = test: Antineuroinflammatory activity in LPS- stimulated mouse BV-2 cells assessed as upregulation of HO-1 expression measured after 24 hrs by immunoblotting analysis; type: functional, cell-based; conditions: dose 1-10 µM
BV-2 [27] = test: Antineuroinflammatory activity in LPS- stimulated mouse BV-2 cells assessed as fold increase in HO-1 expression at 10 uM measured after 24 hrs by immunoblotting analysis relative to control; type: functional
BV-2 [28] = test: Antineuroinflammatory activity in LPS- stimulated mouse BV-2 cells assessed as conversion of microglia from M1 to M2 phenotype macrophages by measuring arginase-1 level at 10 uM measured after 24 hrs by ELISA; type: functional, cell-based
BV-2 [29] = test: Antineuroinflammatory activity in LPS- stimulated mouse BV-2 cells assessed as conversion of microglia from M1 to M2 phenotype macrophages by measuring IL-10 production at 1 uM measured after 24 hrs by ELISA; type: functional, cell-based
[30] = Mus musculus, BV-2, 24 h, read-out: EC50

`NC(=O)N1c2ccccc2C=Cc2ccccc21` [CARBAMAZEPINE] gave a Papp at 10 h [1] of 10.7 ×10⁻⁶ cm/s.

With `C=C1C(=O)O[C@@H]2CC(C)=C([C@@H](C)CCCOC(C)=O)[C@@H](O)[C@H]12` the EC50 [2, 30] was 12.5 µM, the Activity (BV-2 [3]) was 99.5% and the Papp at 10 h [1] was 7.5 ×10⁻⁶ cm/s.

In the case of `C=C1C(=O)O[C@@H]2CC(CBr)=C([C@@H](C)CCCOC(C)=O)[C@@H](OC(C)=O)[C@H]12`, the EC50 [2, 30] is reported as 0.7 µM, the Activity (BV-2 [4]) is reported as 90.6% and the “Ratio EC50” value [5] is reported as 6. For the same molecule, the inhibition (BV-2 [6]) was “inactive”, the inhibition (BV-2 [7]) was “inactive” and the inhibition (BV-2 [8]) was “Dose-Dependent Effect”. For the same molecule, the inhibition (BV-2 [9]) was “Dose-Dependent Effect”, the inhibition at 10 µM [10] was 12.2% and the inhibition (BV-2 [11]) was “Dose-Dependent Effect”. For the same molecule, the inhibition at 10 µM [12] was 11.2%, the inhibition (BV-2 [13]) was “inactive” and the inhibition (BV-2 [14]) was “Dose-Dependent Effect”. For the same molecule, the inhibition (BV-2 [15]) was “inactive”, the inhibition (BV-2 [16]) was “Active” and the “fold change (FC)” value [17] was 4. The “fold change (FC)” value (BV-2 [18]) was 4, the inhibition (BV-2 [19]) was “Active” and the inhibition (BV-2 [20]) was “Dose-Dependent Effect”. For the same molecule, the inhibition (BV-2 [21]) was “inactive”, the Activity (BV-2 [22]) was 10.6% and the Activity (BV-2 [23]) was 9.9%. The Activity [24] was “Dose-Dependent Effect”, the inhibition (BV-2 [25]) was “inactive” and the Activity (BV-2 [26]) was “Dose-Dependent Effect”. The “fold change (FC)” value (BV-2 [27]) was 2.8, the Activity (BV-2 [28]) was “Active” and the Activity (BV-2 [29]) was “Active”. It also gave a Papp at 10 h [1] of 6.5 ×10⁻⁶ cm/s.

Molecule `CC(=O)OCCC[C@H](C)C1=C(C)C[C@H]2OC(=O)[C@]3(CC(c4ccc5ccccc5c4)=NO3)[C@H]2[C@@H]1OC(C)=O` has an EC50 [2, 30] of over 50 µM and an Activity (BV-2 [3]) of 95.4%.

In the case of `CC(=O)OCCC[C@H](C)C1=C(C)C[C@H]2OC(=O)[C@]3(CC(c4ccc(F)cc4)=NO3)[C@H]2[C@@H]1OC(C)=O`, the EC50 [2, 30] is reported as 39 µM and the Activity (BV-2 [3]) is reported as 101.5%.

For `C=C1C(=O)O[C@H]2[C@@H]1[C@H](OC(C)=O)C([C@@H](C)CCCOC(C)=O)=C(C)[C@H]2n1cc(C(=O)OC)nn1`, the EC50 ([2]; bv-2) was “Not Active” and the Activity (BV-2 [3]) was 63.8%.

Molecule `O=c1c(O)c(-c2ccc(O)c(O)c2)oc2cc(O)cc(O)c12` [QUERCETIN] has an EC50 [2, 30] of 10.5 µM and an Activity (BV-2 [3]) of 98.1%.

Work on `C=C1C(=O)O[C@@H]2CC(CN(CC)CC)=C([C@@H](C)CCCOC(C)=O)[C@@H](OC(C)=O)[C@H]12` yielded an EC50 [2, 30] of 14.6 µM and an Activity (BV-2 [3]) of 94.1%.

Molecule `CC(=O)OCCC[C@H](C)C1=C(C)C[C@H]2OC(=O)[C@@H](C)[C@H]2[C@@H]1O` has an EC50 [2, 30] of over 50 µM and an Activity (BV-2 [3]) of 101.2%.

`C=C1C(=O)O[C@H]2[C@@H]1[C@H](OC(C)=O)C([C@@H](C)CCCOC(C)=O)=C(CBr)[C@@H]2Br` showed an EC50 [2, 30] of 11.1 µM and an Activity (BV-2 [3]) of 96%.

Molecule `C=C1C(=O)O[C@@H]2CC(C)=C([C@@H](C)CCCOC(C)=O)[C@@H](OC(C)=O)[C@H]12` has an EC50 [2, 30] of 6.3 µM, an Activity (BV-2 [3]) of 66.5% and an inhibition at 10 µM [12] of 59.7%. The “fold change (FC)” value (BV-2 [27]) was 4 and the Papp at 10 h [1] was 12.3 ×10⁻⁶ cm/s.

For `CC(=O)OCCC[C@H](C)C1=C(C)C[C@H]2OC(=O)[C@]3(CC(c4c(F)c(F)c(F)c(F)c4F)=NO3)[C@H]2[C@@H]1OC(C)=O`, the EC50 [2, 30] was 16.3 µM and the Activity (BV-2 [3]) was 92.2%.

`C=C1C(=O)O[C@@H]2C[C@@]3(C)O[C@@]3([C@@H](C)CCCOC(C)=O)[C@@H](O)[C@H]12` showed an EC50 [2, 30] of 6.5 µM and an Activity (BV-2 [3]) of 93.4%.

From ChEMBL document CHEMBL4842343, “1,10-Seco-Eudesmane sesquiterpenoids as a new type of anti-neuroinflammatory agents by suppressing TLR4/NF-κB/MAPK pathways” (Eur J Med Chem, 2021)
